# Results published in publication PMC8336721 (ACS chemical neuroscience, 2020).
# Where “and” joins values, the source holds several entries; their conditions need not be identical. Equal entries are not always repeated. Where two headings read alike, the source gives them in different places.
# What was measured:
# MOR = MOR (Rattus norvegicus, UniProt P33535); assay: [35S]GTPγS binding to membranes of CHO cells stably expressing the MOR; assay type: biochemical; conditions: for Maximal Effect, MOR: % of maximal [35S]GTPγS binding of reference full agonist DAMGO; for agonist type at the MOR: [35S]GTPγS binding
# DOR = DOR (Mus musculus, UniProt P32300); assay: [35S]GTPγS binding to membranes of CHO cells stably expressing the DOR; assay type: biochemical; conditions: for agonist type at the DOR: [35S]GTPγS binding, relatively low potency
# KOR [1] = biological target: T1, KOR (Homo sapiens, UniProt P41145); assay: [35S]GTPγS binding to membranes of CHO cells stably expressing the KOR; assay type: biochemical; conditions: for Maximal Effect, KOR: % of maximal [35S]GTPγS binding of reference full agonist (−)U50,488H
# NOR = NOR (Homo sapiens, UniProt P41146); assay: [35S]GTPγS binding to membranes of CHO cells stably expressing the NOR; assay type: biochemical; conditions: for agonist type at the NOR: [35S]GTPγS binding, relatively low potency
# KOR [2] = biological target: T1, KOR; assay: GloSensor cAMP assay; assay type: cell-based; conditions: for more potent than U50,488H, inhibition of cAMP accumulation: EC50 ratio vs U50,488H
# KOR [3] = biological target: T1, KOR; assay: Tango assay; assay type: cell-based
# mice [4] = assay: Formalin test; assay type: in vivo; conditions: s.c. 5 min before formalin, licking time phase II
# mice [5] = assay: Compound 48/80 scratching test; assay type: in vivo
# mice [6] = assay: Rotarod test; assay type: in vivo
# mice [7] = assay: Novelty-induced locomotor activity; assay type: in vivo; conditions: 1, 3, 5 mg/kg s.c., 0–30 min post-injection
# mice [8] = assay: Conditioned place aversion
# mouse = mouse tail flick test; cited from earlier work
# human KOR = assay: G protein bias from RAi of GloSensor cAMP and Tango assays; assay type: cell-based; conditions: RAi−G divided by RAi−b, U50,488H as balanced agonist
# mice [9] = conditions: late phase of the formalin test; cited from earlier work
# mice [10] = conditions: cited from earlier work
# mice [11] = conditions: cited from earlier work; remark: listed apart in the source
# mice [12] = conditions: nalfurafine up to 20 μg/kg, U50,488 5 mg/kg; cited from earlier work
# P-glycoprotein = conditions: cited from earlier work
# MOR, sequence (P33535 whole entry): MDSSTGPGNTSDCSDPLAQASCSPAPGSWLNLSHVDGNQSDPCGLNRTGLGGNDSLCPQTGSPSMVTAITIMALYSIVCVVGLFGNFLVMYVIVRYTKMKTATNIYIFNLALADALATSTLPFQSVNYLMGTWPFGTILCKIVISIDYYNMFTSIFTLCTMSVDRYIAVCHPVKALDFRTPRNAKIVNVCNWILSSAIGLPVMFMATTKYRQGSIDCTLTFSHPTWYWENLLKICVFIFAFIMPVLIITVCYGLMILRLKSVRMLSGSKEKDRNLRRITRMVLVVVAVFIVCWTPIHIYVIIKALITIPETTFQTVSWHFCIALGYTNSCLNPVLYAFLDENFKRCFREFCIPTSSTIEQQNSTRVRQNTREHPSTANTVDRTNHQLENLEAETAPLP
# DOR, sequence (P32300 whole entry): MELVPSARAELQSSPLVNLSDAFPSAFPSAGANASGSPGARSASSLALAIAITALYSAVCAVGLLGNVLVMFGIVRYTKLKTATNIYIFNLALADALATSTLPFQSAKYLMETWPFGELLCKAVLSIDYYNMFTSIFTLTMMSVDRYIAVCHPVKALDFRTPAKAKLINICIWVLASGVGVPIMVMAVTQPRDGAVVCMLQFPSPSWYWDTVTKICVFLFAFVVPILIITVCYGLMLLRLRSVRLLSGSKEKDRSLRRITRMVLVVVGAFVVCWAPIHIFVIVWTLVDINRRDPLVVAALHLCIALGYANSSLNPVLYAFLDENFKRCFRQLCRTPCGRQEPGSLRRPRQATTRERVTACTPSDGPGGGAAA
# NOR, sequence (P41146 whole entry): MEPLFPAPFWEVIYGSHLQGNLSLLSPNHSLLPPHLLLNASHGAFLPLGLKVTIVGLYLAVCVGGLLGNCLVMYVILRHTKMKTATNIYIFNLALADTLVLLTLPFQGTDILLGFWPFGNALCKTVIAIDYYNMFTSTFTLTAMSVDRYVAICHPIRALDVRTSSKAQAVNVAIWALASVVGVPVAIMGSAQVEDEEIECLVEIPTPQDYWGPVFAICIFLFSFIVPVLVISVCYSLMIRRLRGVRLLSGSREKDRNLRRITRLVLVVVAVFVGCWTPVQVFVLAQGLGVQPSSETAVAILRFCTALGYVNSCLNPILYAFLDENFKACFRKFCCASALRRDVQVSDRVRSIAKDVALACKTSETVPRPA
# T1 sequence (P41145 whole entry): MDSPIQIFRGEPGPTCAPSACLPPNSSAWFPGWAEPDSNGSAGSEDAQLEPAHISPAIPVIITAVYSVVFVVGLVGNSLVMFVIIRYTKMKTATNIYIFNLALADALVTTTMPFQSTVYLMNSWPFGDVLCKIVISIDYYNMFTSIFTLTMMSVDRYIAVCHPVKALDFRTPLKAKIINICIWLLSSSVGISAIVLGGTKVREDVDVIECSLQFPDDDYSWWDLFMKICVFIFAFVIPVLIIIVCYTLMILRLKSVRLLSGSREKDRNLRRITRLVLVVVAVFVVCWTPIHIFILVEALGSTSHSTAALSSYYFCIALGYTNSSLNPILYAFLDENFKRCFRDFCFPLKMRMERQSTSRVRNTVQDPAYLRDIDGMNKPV
compound,measurement,setting,value
CN(C(=O)/C=C/c1ccoc1)[C@@H]1CC[C@@]2(O)[C@H]3Cc4cccc5c4[C@@]2(CCN3CC2CC2)[C@H]1O5 [42B],"Maximal Effect, MOR",MOR,49% and 48.87 ± 2.45%
same,agonist type at the MOR,MOR,partial agonists
same,"Maximal Effect, DOR",DOR; % of maximal [35S]GTPγS binding of reference full agonist DPDPE,134.7 ± 3.4%
same,agonist type at the DOR,DOR,full agonism
same,"Maximal Effect, KOR",KOR [1],91% and 91.34 ± 1.15%
same,agonist type at the KOR,KOR [1]; [35S]GTPγS binding,full agonists
same,EC50,"KOR [1]; read-out: EC50, KOR, [35S]GTPγS binding, CHO membranes, 100 mM NaCl, mean ± SEM n=3–4",25.6 ± 1.5 nM
same,agonist type at the NOR,NOR,full agonism
same,"more potent than U50,488H, inhibition of cAMP accumulation",KOR [2],~ 2 fold
same,GloSensor cAMP assay Emax,"KOR [2]; maximal degree of inhibition, mean ± SEM n=3",74.40±1.68%
same,EC50,"KOR [2]; read-out: GloSensor cAMP assay EC50, inhibition of cAMP, mean ± SEM n=3",0.82 ± 0.18 nM
same,"lower potency for β-arrestin recruitment than U50,488H","KOR [3]; EC50 ratio vs U50,488H",~ 2 fold
same,lower potency for β-arrestin recruitment than nalfurafine,KOR [3]; EC50 ratio vs nalfurafine,~ 4 fold
same,EC50,"KOR [3]; read-out: Tango assay EC50, β-arrestin2 recruitment, mean ± SEM n=3",3.22 ± 0.42 nM
same,Tango assay Emax,"KOR [3]; β-arrestin2 recruitment, mean ± SEM n=3, % printed in b16 only",116.8±1.0 %
same,"A50, formalin test",mice [4],2.08 mg/kg
same,effect of norBNI pretreatment on anti-scratch activity,mice [5]; norBNI 20 mg/kg i.p. 20 h before 42B 3 mg/kg,eliminated the anti-scratch activity
same,"A50, compound 48/80-induced scratching","mice [5]; s.c. 20 min before compound 48/80, bouts counted 30 min, mice",2.82 mg/kg
same,rotarod performance at 1 mg/kg,"mice [6]; 1 mg/kg, at 10 min",significant effect
same,rotarod performance,"mice [6]; 1, 3, 5 mg/kg s.c., tested 10, 20, 30, 40 min",dose-dependently caused performance impairment
same,time of peak effect in rotarod test,mice [6]; among time points tested 10–40 min,10 min
same,time of return to control level in rotarod test,"mice [6]; mouse, in vivo",40 min
same,novelty-induced hyperlocomotion,mice [7],significant and dose-dependent reduction
same,CPA,"mice [8]; 1, 3, 5 mg/kg s.c., 6 days conditioning",did not cause CPA
same,effect of MOR blockade by naloxone on lack of CPA,mice [8]; naloxone 1 mg/kg s.c. 25 min before 42B 3 mg/kg,did not affect its lack of CPA
C=CCN1CC[C@]23c4c5ccc(O)c4O[C@H]2C(=O)CC[C@@]3(O)[C@H]1C5 [naloxone],"more potent in antagonizing morphine- than U50,488- or spiradoline-induced antinociception",mouse,20–36 times
same,CPA or CPP in the naloxone experiment,"mice [8]; naloxone 1 mg/kg alone, U50,488 5 mg/kg as positive control",Neither naloxone (1 mg/kg) alone nor a combination of naloxone (1 mg/kg) and 42B (3 mg/kg) caused CPA or CPP
CN(C(=O)/C=C/c1ccoc1)[C@@H]1CC[C@@]2(O)[C@H]3Cc4ccc(O)c5c4[C@@]2(CCN3CC2CC2)[C@H]1O5 [Nalfurafine],EC50,MOR,3.11 ± 0.63 nM
same,"Maximal Effect, MOR",MOR,73.88 ± 2.93%
same,agonist type at the MOR,MOR,partial agonists
same,agonist type at the DOR,DOR,full agonism
same,Emax,"DOR; read-out: Maximal Effect, DOR",129 ± 3.2%
same,"Maximal Effect, KOR",KOR [1],90.90 ± 3.25%
same,agonist type at the KOR,KOR [1]; [35S]GTPγS binding,full agonists
same,potency at the KOR higher than that of 42B,"KOR [1]; [35S]GTPγS binding EC50 ratio, nalfurafine vs 42B",~ 250 fold
same,EC50,NOR,280 ± 17.7 nM
same,agonist type at the NOR,NOR,full agonism
same,Emax,"NOR; read-out: Maximal Effect, NOR",120 ± 2.2%
same,"more potent than U50,488H, inhibition of cAMP accumulation",KOR [2],~ 9 fold
same,Emax,"KOR [2]; HEK-293T, read-out: GloSensor cAMP assay Emax",69.8 ± 1.53%
same,more potent than 42B in inhibition of forskolin-stimulated adenylyl cyclase (Glosensor assay),KOR [2]; nalfurafine vs 42B,~ 5 X
same,Emax,"KOR [3]; HEK293, read-out: Tango assay Emax",108 ± 2.6%
same,G Biased factor (95% CI),human KOR,4.49 (1.79–11.1)
same,G Biased factor (95% CI),human KOR; listed as nalfurafine,4.49
same,more potent than 42B in the anti-scratch test,mice [5]; A50 ratio nalfurafine vs 42B,about 340 x
same,"A50, formalin test",mice [9],5.8 µg/kg
same,"A50, compound 48/80-induced scratching",mice [10],8.0 µg/kg
same,rotarod performance,"mice [11]; 20 μg/kg, at 30 min and 40 min following injection","small, yet significant, effects"
same,time of peak effect in rotarod test,mice [11]; slight lowering effect,30 min
same,CPA,mice [12],did not produce CPA
same,P-glycoprotein substrate,P-glycoprotein,P-glycoprotein substrate
"Oc1ccc2c3c1O[C@H]1c4[nH]c5c(c4C[C@@]4(O)[C@@H](C2)N(CC2CC2)CC[C@]314)C[C@@]1(O)[C@H]2Cc3ccc(O)c4c3[C@@]1(CCN2CC1CC1)[C@H]5O4 [norBNI, nor-binaltorphimine]","effect on compound 48/80-induced scratching, alone",mice [5]; norBNI 20 mg/kg i.p. 20 h before saline,no effects
